Experimental data reported in ChEMBL document CHEMBL1201862, “PubChem BioAssay data set” (2004).
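Results reflect a 48-hour exposure of cells in 96-well plates to compound at five concentrations. Abbreviation: GI50, concentration required for 50% inhibition of growth.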 Active and inactive are the calls of the source. Cut-off read from the data, not from the text of the source: active = GI50 up to about 1.1 µM and inactive = higher.

Tests used:
Assay in all cases: DTP human tumour cell line panel, 48 h
HOP-62 = tested on: HOP-62
SF-268 = tested on: SF-268
HCT-15 = tested on: HCT-15
DU-145 = tested on: DU-145
IGROV-1 = tested on: IGROV-1
COLO 205 = tested on: COLO 205
SK-MEL-2 = tested on: SK-MEL-2
NCI-H522 = tested on: NCI-H522
KM12 = tested on: KM12
MOLT-4 = tested on: MOLT-4
OVCAR-5 = tested on: OVCAR-5
MDA-MB-435 = tested on: MDA-MB-435
HL-60 = tested on: HL-60
ACHN = tested on: ACHN
OVCAR-3 = tested on: OVCAR-3
SK-MEL-5 = tested on: SK-MEL-5
SW-620 = tested on: SW-620
SN12C = tested on: SN12C
SNB-19 = tested on: SNB-19
NCI-H460 = tested on: NCI-H460
NCI-H226 = tested on: NCI-H226
A498 = tested on: A498
NCI-H23 = tested on: NCI-H23
PC-3 = tested on: PC-3
NCI/ADR-RES = tested on: NCI/ADR-RES
T47D = tested on: T47D
SF-539 = tested on: SF-539
U-251 = tested on: U-251
MCF7 = tested on: MCF7
UO-31 = tested on: UO-31
MDA-N = tested on: MDA-N
Malme-3M = tested on: Malme-3M
RPMI-8226 = tested on: RPMI-8226
SK-MEL-28 = tested on: SK-MEL-28
SNB-75 = tested on: SNB-75
HOP-92 = tested on: HOP-92
CCRF-CEM = tested on: CCRF-CEM
M14 = tested on: M14
HCC 2998 = tested on: HCC 2998
Hs-578T = tested on: Hs-578T
MDA-MB-231 = tested on: MDA-MB-231
LOX IMVI = tested on: LOX IMVI
CAKI-1 = tested on: CAKI-1
K562 = tested on: K562
OVCAR-8 = tested on: OVCAR-8
A549 = tested on: A549
RXF 393 = tested on: RXF 393
EKVX = tested on: EKVX
HT-29 = tested on: HT-29
UACC-62 = tested on: UACC-62
786-0 = tested on: 786-0
UACC-257 = tested on: UACC-257
SR = tested on: SR
SF-295 = tested on: SF-295
TK-10 = tested on: TK-10
SK-OV-3 = tested on: SK-OV-3
OVCAR-4 = tested on: OVCAR-4
HCT-116 = tested on: HCT-116
BT-549 = tested on: BT-549

Measured: GI50

CC(=O)OC/C=C/Cn1ncc(=O)[nH]c1=O
> 100 µM: HCT-15
inactive: HOP-62 > 100 µM | SF-268 > 100 µM | DU-145 > 100 µM | IGROV-1 > 100 µM | COLO 205 > 100 µM | SK-MEL-2 > 100 µM | NCI-H522 > 100 µM | KM12 > 100 µM | MOLT-4 > 100 µM | OVCAR-5 > 100 µM | MDA-MB-435 > 100 µM | HL-60 > 100 µM | ACHN > 100 µM | OVCAR-3 > 100 µM | SK-MEL-5 > 100 µM | SW-620 > 100 µM | SN12C > 100 µM | SNB-19 > 100 µM | NCI-H460 > 100 µM | NCI-H226 > 100 µM | A498 > 100 µM | NCI-H23 > 10 µM | PC-3 > 100 µM | NCI/ADR-RES > 100 µM | T47D > 100 µM | SF-539 > 100 µM | U-251 > 100 µM | MCF7 > 100 µM | UO-31 > 100 µM | MDA-N > 100 µM | Malme-3M > 100 µM | RPMI-8226 > 100 µM | SK-MEL-28 > 100 µM | SNB-75 > 100 µM | HOP-92 > 100 µM | CCRF-CEM > 10 µM | M14 > 100 µM | HCC 2998 > 100 µM | Hs-578T > 100 µM | MDA-MB-231 > 100 µM | LOX IMVI > 100 µM | CAKI-1 > 100 µM | K562 > 100 µM | OVCAR-8 > 100 µM | A549 > 100 µM | RXF 393 > 100 µM | EKVX > 100 µM | HT-29 > 100 µM

O=C1CCC2(CC1CC[S+]([O-])c1ccccc1)OCCO2 (configuration not stated)
inactive: HOP-62 > 100 µM | SF-268 > 100 µM | DU-145 > 100 µM | UACC-62 > 100 µM | IGROV-1 > 100 µM | COLO 205 > 100 µM | SK-MEL-2 > 100 µM | NCI-H522 > 100 µM | KM12 > 100 µM | MOLT-4 > 100 µM | OVCAR-5 > 100 µM | MDA-MB-435 > 100 µM | HL-60 89.7 µM | ACHN > 100 µM | OVCAR-3 > 100 µM | 786-0 > 100 µM | SK-MEL-5 > 100 µM | UACC-257 > 100 µM | SW-620 > 100 µM | SR > 100 µM | SNB-19 > 100 µM | NCI-H460 > 100 µM | NCI-H226 > 100 µM | A498 > 100 µM | NCI-H23 > 100 µM | PC-3 > 100 µM | SF-295 > 100 µM | TK-10 > 100 µM | NCI/ADR-RES > 100 µM | T47D > 100 µM | SF-539 > 100 µM | U-251 > 100 µM | MCF7 > 100 µM | UO-31 > 100 µM | MDA-N > 100 µM | Malme-3M > 100 µM | RPMI-8226 > 100 µM | SK-MEL-28 > 100 µM | SNB-75 > 100 µM | HOP-92 > 100 µM | CCRF-CEM > 100 µM | M14 > 100 µM | HCC 2998 > 100 µM | Hs-578T > 100 µM | MDA-MB-231 > 100 µM | LOX IMVI > 100 µM | CAKI-1 > 100 µM | K562 > 100 µM | SK-OV-3 > 100 µM | OVCAR-8 > 100 µM | A549 > 100 µM | RXF 393 > 100 µM | EKVX > 100 µM | HT-29 > 100 µM | OVCAR-4 > 100 µM
> 100 µM: HCT-15

CC(=O)N(CN1C(=O)CCC1C(=O)O)c1cccc(O)c1 (configuration not stated)
inactive: HOP-62 > 100 µM | SF-268 > 100 µM | DU-145 > 100 µM | UACC-62 > 100 µM | IGROV-1 > 100 µM | COLO 205 > 100 µM | SK-MEL-2 > 100 µM | NCI-H522 > 100 µM | KM12 > 100 µM | MOLT-4 > 100 µM | OVCAR-5 > 100 µM | MDA-MB-435 > 100 µM | HL-60 > 100 µM | ACHN > 100 µM | OVCAR-3 > 100 µM | 786-0 > 100 µM | SK-MEL-5 > 100 µM | UACC-257 > 100 µM | SW-620 > 100 µM | SN12C > 100 µM | SNB-19 > 100 µM | NCI-H460 > 100 µM | NCI-H226 > 100 µM | A498 > 100 µM | NCI-H23 > 100 µM | PC-3 > 100 µM | SF-295 > 100 µM | TK-10 > 100 µM | NCI/ADR-RES > 100 µM | T47D > 100 µM | SF-539 > 100 µM | U-251 > 100 µM | MCF7 > 100 µM | UO-31 > 100 µM | MDA-N > 100 µM | HCT-116 > 100 µM | Malme-3M > 100 µM | RPMI-8226 > 100 µM | SK-MEL-28 > 100 µM | SNB-75 > 100 µM | HOP-92 > 100 µM | CCRF-CEM > 100 µM | M14 > 100 µM | HCC 2998 > 100 µM | Hs-578T > 100 µM | MDA-MB-231 > 100 µM | LOX IMVI > 100 µM | CAKI-1 > 100 µM | K562 > 100 µM | SK-OV-3 > 100 µM | OVCAR-8 > 100 µM | A549 > 100 µM | EKVX > 100 µM | HT-29 > 100 µM | OVCAR-4 > 100 µM
> 100 µM: HCT-15

COc1ccccc1C1(C)SCc2nc3ccccc3n21 (configuration not stated)
inactive: DU-145 > 10 µM | SK-MEL-2 > 10 µM | NCI-H522 > 10 µM | KM12 > 10 µM | BT-549 > 10 µM | MOLT-4 > 10 µM | OVCAR-5 > 10 µM | MDA-MB-435 > 10 µM | HL-60 > 10 µM | OVCAR-3 > 10 µM | SW-620 > 10 µM | SR > 10 µM | SN12C > 10 µM | SNB-19 > 10 µM | NCI-H226 > 10 µM | NCI-H23 > 10 µM | PC-3 > 10 µM | TK-10 > 10 µM | NCI/ADR-RES > 10 µM | U-251 > 10 µM | MCF7 > 10 µM | UO-31 > 10 µM | MDA-N > 10 µM | Malme-3M > 10 µM | HOP-92 > 10 µM | CCRF-CEM > 10 µM | M14 > 10 µM | LOX IMVI > 10 µM | K562 > 10 µM | OVCAR-4 > 10 µM
> 10 µM: HCT-15
